A word on the CC50: it is the concentration at which the toxic effect on the cells reaches its halfway point.

This note sets out measurements from PMC9499324, “Glycyrrhizic Acid Derivatives Bearing Amino Acid Residues in the Carbohydrate Part as Dengue Virus E Protein Inhibitors: Synthesis and Antiviral Activity” (International Journal of Molecular Sciences, 2022).

The test system of series [1] is DENV2. Nature of the series: DENV2-induced cytopathic effect (CPE) reduction screening in Vero E6 cells. The series is classed as cell-based, Dengue virus type 2. The note with it: Dengue virus, Vero C1008; 10 μM compound, DENV2, Vero E6 cells, 96 h; read-out: CPE Reduction at 10 μM. As for the experimental part: In the antiviral screening assay, each tested GL conjugate at 10 μM was used to survey the anti-DENV activity in Vero E6 cells using cytopathic effect (CPE) and infectivity reduction assays as described in our prior report. In CPE and infectivity reduction assays, Vero E6 cells were infected by DENV2 at an MOI of 0.005 and simultaneously treated 10 μM of indicated GL conjugate for 96 h, and then photographed by microscope for examining the levels of DENV2-induced CPE in infected cells treated with or without GL conjugate. Meanwhile, the cells were further performed using immunofluorescence assay (IFA) with anti-DENV NS4B antibodies (GeneTex, Inc., Hsinchu, Taiwan) and anti-rabbit IgG antibodies conjugated with AF555 (ThermoFisher, Waltham, MA, USA) plus DAPI (4′,6-diamidino-2-phenylindole) nuclear staining. Finally, the DENV-2 infectivity was measured according to the ratio of DENV NS4B-positive cells to DAPI-stained cells in the well of mock-treated or treated cells, as described in [45, 59, 60].

The nature of series [2]: MTT cytotoxicity assay in Vero E6 cells. The series is classed as cell-based. The settings on record: African green monkey. As for the experimental part: (§1) Vero E6 cells and A549 cells (5 × 10^3 cells/well) were treated with the serial dilution of GL conjugates at 0, 0.1, 10, 20, and 50 μM for examining the in vitro cytotoxicity of tested compounds. After 96-h incubation at 37 °C, the cells were incubated with MTT (3-(4,5-Dimethylthiazol-2-yl)-2,5-Diphenyltetrazolium Bromide) solution for another 4 h incubation, mixed with DMSO for 15 min after the removal of media, and then measured the absorbance at 570 nm. The viability (%) of treated cells was quantified according to the reduced ability of MTT. Finally, the concentration for reducing 50% cell viability (the 50% cytotoxic concentration, CC50) was determined by regression analysis of the concentration–response survival curve.
On the technique in general: Tetrazolium assays rely on reduction of a dye to a coloured formazan, in cell work by metabolically active cells.

Series [3] in a line: MTT cytotoxicity assay in A549 cells. The series is classed as cell-based. The settings on record: human. As for the experimental part: as §1
For series [4], the system named is DENV2. The series can be described thus: DENV2 infectivity inhibition (anti-NS4B immunofluorescence) in A549 cells. The series is classed as cell-based, Dengue virus type 2. The note with it: Dengue virus.
In the next series the test system is DENV2 CprME/JEV SRIPs. The series can be described thus: E protein-mediated attachment assay with chimeric DENV2 CprME/JEV SRIPs on Vero E6 cells. The series is classed as cell-based, Dengue virus type 2. The note with it: Dengue virus, DENV2, Vero C1008, 1 h, read-out: IC50 of E-mediated attachment against DENV2 CprME/JEV SRIPs. As for the experimental part:
Figure 6 Attachment inhibition of chimeric DENV2 CprM-E/JEV and wild-type JEV SRIPs by active GL conjugates. Vero E6 cells were pre-cooled and incubated with freshly prepared mixtures of DENV2 CprM-E/JEV or wild-type JEV SRIPs, with active GL derivatives 3 (A), 6 (B), 11 (C), and 21 (D) at 4 °C for 1 h, respectively. After the removal of the mixtures, the cells were kept at 37 °C for 18 h and then an immunofluorescent assay with anti-JEV NS5 antibodies plus DAPI staining was performed. Finally, the inhibition percentage of SRIP attachment infectivity was measured as follows: 1-(percentage of JEV NS5 positivity in treated cells/percentage of JEV NS5 positivity in mock-treated cells). * p < 0.05; *** p < 0.001 compared with untreated, infected cells.
DNA-launched cytomegaloviruses (CMV) promoter-driven JEV and ZIKV replicons had been constructed, as described in our prior reports. […] After the removal of the mixture (the compound and SRIP), the cells were incubated at 37 °C for 18 h, and then were analyzed by immunofluorescent assay with anti-JEV NS3 and anti-ZIKV NS5 antibodies, respectively, plus DAPI staining for determining the residual infectivity of wild-type and chimeric SRIPs, as described above.

Each structure is given as a SMILES string. Where only a bound is given, the exact number is not on record here.

For the compound `COC(=O)[C@H](NC(=O)[C@H]1O[C@@H](O[C@H]2[C@H](OC3CC[C@@]4(C)C(CC[C@]5(C)C4C(=O)C=C4C6C[C@@](C)(C(=O)O)CC[C@]6(C)CC[C@]45C)C3(C)C)O[C@H](C(=O)N[C@@H](C(=O)OC)C(C)C)[C@@H](O)[C@@H]2O)[C@H](O)[C@@H](O)[C@@H]1O)C(C)C` (stereo partly drawn) [Compound 3, 3-O-{2-O-[N-(β-D-Glucopyranosyluronoyl)-D-valinemethyl ester]-N-(β-D-glucopyranosyluronoyl)-D-valinemethyl ester}-(3β, 20β)-11-oxo-30-noroleane-12-ene-30-oic Acid], the inhibition at 10 µM with DENV2 [1] fell in the range of 75 to 100%. For the same compound, the CC50 at 96 h in series [2] and in series [3] was more than 100 µM in each case. The figures for the IC50 with DENV2 [4] and in the series with DENV2 CprME/JEV SRIPs were 120 ± 28 nM and 6.69 µM, respectively.

Regarding `CCOC(=O)[C@H](Cc1ccccc1)NC(=O)[C@H]1O[C@@H](O[C@H]2[C@H](OC3CC[C@@]4(C)C(CC[C@]5(C)C4C(=O)C=C4C6C[C@@](C)(C(=O)O)CC[C@]6(C)CC[C@]45C)C3(C)C)O[C@H](C(=O)N[C@@H](Cc3ccccc3)C(=O)OCC)[C@@H](O)[C@@H]2O)[C@H](O)[C@@H](O)[C@@H]1O` (stereo partly drawn) [Compound 11, 3-O-{2-O-[N-(β-D-Glucopyranosyluronoyl)-L-phenylalanineethyl ester]-N-(β-D-Glucopyranosyluronoyl)-L-phenylalanineethyl ester}-(3β, 20β)-11-oxo-30-noroleane-12-ene-30-oic Acid], the inhibition at 10 µM in the series on DENV2 [1] fell in the range of 75 to 100%. Further, the CC50 at 96 h in series [2] and in series [3] was more than 100 µM throughout. In addition, the IC50 with DENV2 [4] is 1560 ± 490 nM; in the series with DENV2 CprME/JEV SRIPs it was 2.82 µM.
